Data as given in patent US10004701B2, “Methods and compositions for treating infection” (UNIVERSITY OF ROCHESTER, priority 2012, dated 2018).
Counter-ions that a name gives are not always drawn. Like-named read-outs stand apart in the source and are kept apart here.

Tests used:
Assay in all cases: AK assay 384-well format, Prestwick library screening
P. aeruginosa = type: cell-based, Pseudomonas aeruginosa; conditions: 50 μM final drug concentration; for fold induction at 50 µM: Pseudomonas aeruginosa, 3 h
K. pneumoniae = type: cell-based, Klebsiella pneumoniae; conditions: 50 μM final drug concentration; for fold induction at 50 µM: Klebsiella pneumoniae, 3 h
[1] = system: A. baumannii strain 98-37-09; type: cell-based, Acinetobacter baumannii; conditions: 50 μM final drug concentration; for fold induction at 50 µM: Acinetobacter baumannii, 983709, 3 h
[2] = system: S. aureus strain USA300-0114; type: cell-based, Staphylococcus aureus; conditions: 50 μM final drug concentration; for fold induction at 50 µM: Staphylococcus aureus, USA300, 3 h
E. faecium = type: cell-based, Enterococcus faecium; conditions: 50 μM final drug concentration; for fold induction at 50 µM: Enterococcus faecium, 3 h
E. coli = type: cell-based, Escherichia coli; conditions: 50 μM final drug concentration; for fold induction at 50 µM: Escherichia coli, 3 h
E. cloacae = type: cell-based, Enterobacter cloacae; conditions: 50 μM final drug concentration; for fold induction at 50 µM: Enterobacter cloacae, 3 h
[3] = planktonic, cutoff for positive 3-fold increase
[4] = planktonic, cutoff for positive-scoring molecules 3-fold increase, read-out: AK-based Prestwick Library Screening Results, P. aeruginosa (fold increase in extracellular AK activity)
[5] = planktonic, cutoff for positive-scoring molecules 3-fold increase, read-out: AK-based Prestwick Library Screening Results, K. pneumoniae (fold increase in extracellular AK activity)
[6] = planktonic, cutoff for positive-scoring molecules 3-fold increase, read-out: AK-based Prestwick Library Screening Results, A. baumannii (fold increase in extracellular AK activity)
[7] = planktonic, cutoff for positive-scoring molecules 3-fold increase, read-out: AK-based Prestwick Library Screening Results, S. aureus (fold increase in extracellular AK activity)
[8] = planktonic, cutoff for positive-scoring molecules 3-fold increase, read-out: AK-based Prestwick Library Screening Results, E. faecium (fold increase in extracellular AK activity)
[9] = planktonic, cutoff for positive-scoring molecules 3-fold increase, read-out: AK-based Prestwick Library Screening Results, E. coli (fold increase in extracellular AK activity)
[10] = planktonic, cutoff for positive-scoring molecules 3-fold increase, read-out: AK-based Prestwick Library Screening Results, E. cloacae (fold increase in extracellular AK activity)

For `C[C@@H]1[C@H](O)[C@@H](C)/C=C/C=C/CC/C=C/C=C/C=C/C=C/C(O[C@H]2O[C@H](C)[C@@H](O)[C@H](N)[C@@H]2O)CC2O[C@](O)(CC(O)C(O)CCC(O)CC(O)CC(O)CC(=O)O[C@H]1C)CC(O)C2C(=O)O` (some centres unmarked) [Nystatine], the “AK-based Prestwick Library Screening Results, P. aeruginosa (increase in extracellular AK activity)” value (P. aeruginosa; planktonic P. aeruginosa, […]) was 0.8, the “AK-based Prestwick Library Screening Results, K. pneumoniae (increase in extracellular AK activity)” value (K. pneumoniae; planktonic K. pneumoniae, […]) was 0.8 and the “AK-based Prestwick Library Screening Results, A. baumannii (increase in extracellular AK activity)” value ([1]; planktonic A. baumannii, […]) was 0.9. The “AK-based Prestwick Library Screening Results, S. aureus (increase in extracellular AK activity)” value ([2]; planktonic S. aureus, […]) was 0.7, the “AK-based Prestwick Library Screening Results, E. faecium (increase in extracellular AK activity)” value (E. faecium; planktonic E. faecium, […]) was 0.8 and the “AK-based Prestwick Library Screening Results, E. coli (increase in extracellular AK activity)” value (E. coli; planktonic E. coli, […]) was 1.0. For the same molecule, the “AK-based Prestwick Library Screening Results, E. cloacae (increase in extracellular AK activity)” value (E. cloacae; planktonic E. cloacae, […]) was 1.4.

With `COc1cc2c(cc1OC)C(C)NCC2.Cl` (centres unmarked) the “AK-based Prestwick Library Screening Results, P. aeruginosa (fold increase in extracellular AK activity)” value (P. aeruginosa; [3]) was 1.2, the “AK-based Prestwick Library Screening Results, K. pneumoniae (fold increase in extracellular AK activity)” value (K. pneumoniae; [3]) was 1.0 and the “AK-based Prestwick Library Screening Results, A. baumannii (fold increase in extracellular AK activity)” value [1, 3] was 1.0. The “AK-based Prestwick Library Screening Results, S. aureus (fold increase in extracellular AK activity)” value [2, 3] was 1.0, the “AK-based Prestwick Library Screening Results, E. faecium (fold increase in extracellular AK activity)” value (E. faecium; [3]) was 0.9 and the “AK-based Prestwick Library Screening Results, E. coli (fold increase in extracellular AK activity)” value (E. coli; planktonic, […]) was 1.3. For the same molecule, the “AK-based Prestwick Library Screening Results, E. cloacae (fold increase in extracellular AK activity)” value (E. cloacae; [3]) was 1.5.

For `COc1ccc(C(Cl)=C(c2ccc(OC)cc2)c2ccc(OC)cc2)cc1` [Chlorotrianisene], the fold induction at 50 µM (P. aeruginosa; [4]) was 0.8, the fold induction at 50 µM (K. pneumoniae; [5]) was 0.8 and the fold induction at 50 µM [1, 6] was 0.8. For the same molecule, the fold induction at 50 µM [2, 7] was 0.8, the fold induction at 50 µM (E. faecium; [8]) was 1 and the fold induction at 50 µM (E. coli; [9]) was 0.9. For the same molecule, the fold induction at 50 µM (E. cloacae; [10]) was 1.4.

In the case of `C=C(C)[C@@H]1CC[C@]2(CO)CC[C@]3(C)[C@H](CC[C@@H]4[C@@]5(C)CC[C@H](O)C(C)(C)[C@@H]5CC[C@]43C)[C@@H]12` [Betulin], the fold induction at 50 µM (P. aeruginosa; planktonic P. aeruginosa, positive cutoff 3-fold increase, read-out: AK-based Prestwick library screening result, P. aeruginosa (fold increase in extracellular AK activity)) is reported as 0.7, the fold induction at 50 µM (K. pneumoniae; planktonic K. pneumoniae, positive cutoff 3-fold increase, read-out: AK-based Prestwick library screening result, K. pneumoniae (fold increase in extracellular AK activity)) is reported as 0.7 and the fold induction at 50 µM ([1]; planktonic A. baumannii, positive cutoff 3-fold increase, read-out: AK-based Prestwick library screening result, A. baumannii (fold increase in extracellular AK activity)) is reported as 0.8. For the same molecule, the fold induction at 50 µM ([2]; planktonic S. aureus, positive cutoff 3-fold increase, read-out: AK-based Prestwick library screening result, S. aureus (fold increase in extracellular AK activity)) was 0.3, the fold induction at 50 µM (E. faecium; planktonic E. faecium, positive cutoff 3-fold increase, read-out: AK-based Prestwick library screening result, E. faecium (fold increase in extracellular AK activity)) was 0.9 and the fold induction at 50 µM (E. coli; planktonic E. coli, positive cutoff 3-fold increase, read-out: AK-based Prestwick library screening result, E. coli (fold increase in extracellular AK activity)) was 0.8. The fold induction at 50 µM (E. cloacae; planktonic E. cloacae, positive cutoff 3-fold increase, read-out: AK-based Prestwick library screening result, E. cloacae (fold increase in extracellular AK activity)) was 1.3.

For `Nc1ncnc2c1ncn2[C@@H]1O[C@H](CO)[C@@H](O)[C@@H]1O` [Vidarabine], the fold induction at 50 µM (P. aeruginosa; [4]) was 1, the fold induction at 50 µM (K. pneumoniae; [5]) was 0.7 and the fold induction at 50 µM [1, 6] was 1. The fold induction at 50 µM [2, 7] was 1.5, the fold induction at 50 µM (E. faecium; [8]) was 1.1 and the fold induction at 50 µM (E. coli; [9]) was 1.1. For the same molecule, the fold induction at 50 µM (E. cloacae; [10]) was 1.8.

For `CN(Cc1cnc2nc(N)nc(N)c2n1)c1ccc(C(=O)N[C@@H](CCC(=O)O)C(=O)O)cc1` (racemic) [Amethopterin (R,S)], the “AK-based Prestwick Library Screening Results, P. aeruginosa (fold increase in extracellular AK activity)” value (P. aeruginosa; [3]) was 1.1, the “AK-based Prestwick Library Screening Results, K. pneumoniae (fold increase in extracellular AK activity)” value (K. pneumoniae; [3]) was 0.8 and the “AK-based Prestwick Library Screening Results, A. baumannii (fold increase in extracellular AK activity)” value [1, 3] was 0.9. The “AK-based Prestwick Library Screening Results, S. aureus (fold increase in extracellular AK activity)” value [2, 3] was 1.0, the “AK-based Prestwick Library Screening Results, E. faecium (fold increase in extracellular AK activity)” value (E. faecium; [3]) was 0.9 and the “AK-based Prestwick Library Screening Results, E. coli (fold increase in extracellular AK activity)” value (E. coli; [3]) was 1.1. The “AK-based Prestwick Library Screening Results, E. cloacae (fold increase in extracellular AK activity)” value (E. cloacae; [3]) was 1.3.

Molecule `N=C(N)NCCN1CCCCCCC1` [Guanethidine sulfate] has a fold induction at 50 µM (P. aeruginosa; planktonic P. aeruginosa, 384-well, […], read-out: AK-based Prestwick Library Screening Results: P. aeruginosa (increase in extracellular AK activity)) of 1.4, a fold induction at 50 µM (K. pneumoniae; planktonic K. pneumoniae, 384-well, […], read-out: AK-based Prestwick Library Screening Results: K. pneumoniae (increase in extracellular AK activity)) of 1.1 and a fold induction at 50 µM ([1]; planktonic A. baumannii, 384-well, […], read-out: AK-based Prestwick Library Screening Results: A. baumannii (increase in extracellular AK activity)) of 1.3. For the same molecule, the fold induction at 50 µM ([2]; planktonic S. aureus, 384-well, […], read-out: AK-based Prestwick Library Screening Results: S. aureus (increase in extracellular AK activity)) was 1.1, the fold induction at 50 µM (E. faecium; planktonic E. faecium, 384-well, […], read-out: AK-based Prestwick Library Screening Results: E. faecium (increase in extracellular AK activity)) was 1.1 and the fold induction at 50 µM (E. coli; planktonic E. coli, 384-well, […], read-out: AK-based Prestwick Library Screening Results: E. coli (increase in extracellular AK activity)) was 1.4. For the same molecule, the fold induction at 50 µM (E. cloacae; planktonic E. cloacae, 384-well, […], read-out: AK-based Prestwick Library Screening Results: E. cloacae (increase in extracellular AK activity)) was 1.4.

`O=C(O)c1ccccc1OP(=O)(O)O` [Fosfosal] was tested, and the fold induction at 50 µM (P. aeruginosa; [4]) was 0.7, the fold induction at 50 µM (K. pneumoniae; [5]) was 0.6 and the fold induction at 50 µM [1, 6] was 0.8. The fold induction at 50 µM [2, 7] was 0.7, the fold induction at 50 µM (E. faecium; [8]) was 0.9 and the fold induction at 50 µM (E. coli; [9]) was 0.7. The fold induction at 50 µM (E. cloacae; [10]) was 0.8.

Molecule `C[C@H]1C(=O)O[C@@H]2CCN3CC=C(COC(=O)[C@](C)(O)[C@]1(C)O)[C@H]23` [Monocrotaline] has a fold induction at 50 µM (P. aeruginosa; planktonic, […], read-out: AK-based Prestwick Library Screening Results, P. aeruginosa (fold increase in extracellular AK activity)) of 1.2, a fold induction at 50 µM (K. pneumoniae; planktonic, […], read-out: AK-based Prestwick Library Screening Results, K. pneumoniae (fold increase in extracellular AK activity)) of 1 and a fold induction at 50 µM ([1]; planktonic, […], read-out: AK-based Prestwick Library Screening Results, A. baumannii (fold increase in extracellular AK activity)) of 1.2. The fold induction at 50 µM ([2]; planktonic, […], read-out: AK-based Prestwick Library Screening Results, S. aureus (fold increase in extracellular AK activity)) was 1, the fold induction at 50 µM (E. faecium; planktonic, […], read-out: AK-based Prestwick Library Screening Results, E. faecium (fold increase in extracellular AK activity)) was 1.1 and the fold induction at 50 µM (E. coli; planktonic, […], read-out: AK-based Prestwick Library Screening Results, E. coli (fold increase in extracellular AK activity)) was 1.3. The fold induction at 50 µM (E. cloacae; planktonic, […], read-out: AK-based Prestwick Library Screening Results, E. cloacae (fold increase in extracellular AK activity)) was 1.3.

For `CC(=O)O[C@H]1C[C@H](O[C@H]2[C@@H](O)C[C@H](O[C@H]3[C@@H](O)C[C@H](O[C@H]4CC[C@@]5(C)[C@H](CC[C@@H]6[C@@H]5C[C@@H](O)[C@]5(C)[C@@H](C7=CC(=O)OC7)CC[C@]65O)C4)O[C@@H]3C)O[C@@H]2C)O[C@H](C)[C@H]1O[C@@H]1O[C@H](CO)[C@@H](O)[C@H](O)[C@H]1O` [Lanatoside C], the “AK-based Prestwick Library Screening Results, P. aeruginosa (fold increase in extracellular AK activity)” value (P. aeruginosa; planktonic, […]) was 0.6, the “AK-based Prestwick Library Screening Results, K. pneumoniae (fold increase in extracellular AK activity)” value (K. pneumoniae; planktonic, […]) was 0.6 and the “AK-based Prestwick Library Screening Results, A. baumannii (fold increase in extracellular AK activity)” value ([1]; planktonic, […]) was 0.8. For the same molecule, the “AK-based Prestwick Library Screening Results, S. aureus (fold increase in extracellular AK activity)” value ([2]; planktonic, […]) was 0.7, the “AK-based Prestwick Library Screening Results, E. faecium (fold increase in extracellular AK activity)” value (E. faecium; planktonic, […]) was 0.9 and the “AK-based Prestwick Library Screening Results, E. coli (fold increase in extracellular AK activity)” value (E. coli; planktonic, […]) was 0.6. For the same molecule, the “AK-based Prestwick Library Screening Results, E. cloacae (fold increase in extracellular AK activity)” value (E. cloacae; planktonic, […]) was 1.0.

In the case of `CC(=O)NC(CC(=O)O)C(=O)O` (racemic) [Aspartic acid, N-acetyl (R,S)], the “AK-based Prestwick Library Screening Results, P. aeruginosa (increase in extracellular AK activity)” value (P. aeruginosa; planktonic P. aeruginosa, cutoff for positive-scoring molecules 3-fold increase) is reported as 0.6, the “AK-based Prestwick Library Screening Results, K. pneumoniae (increase in extracellular AK activity)” value (K. pneumoniae; planktonic K. pneumoniae, cutoff for positive-scoring molecules 3-fold increase) is reported as 0.5 and the “AK-based Prestwick Library Screening Results, A. baumannii (increase in extracellular AK activity)” value ([1]; planktonic A. baumannii, cutoff for positive-scoring molecules 3-fold increase) is reported as 0.6. For the same molecule, the “AK-based Prestwick Library Screening Results, S. aureus (increase in extracellular AK activity)” value ([2]; planktonic S. aureus, cutoff for positive-scoring molecules 3-fold increase) was 0.5, the “AK-based Prestwick Library Screening Results, E. faecium (increase in extracellular AK activity)” value (E. faecium; planktonic E. faecium, cutoff for positive-scoring molecules 3-fold increase) was 0.9 and the “AK-based Prestwick Library Screening Results, E. coli (increase in extracellular AK activity)” value (E. coli; planktonic E. coli, cutoff for positive-scoring molecules 3-fold increase) was 0.6. The “AK-based Prestwick Library Screening Results, E. cloacae (increase in extracellular AK activity)” value (E. cloacae; planktonic E. cloacae, cutoff for positive-scoring molecules 3-fold increase) was 0.7.
